From patent publication US11746116B2, “Antibiotic resistance breakers” (KING'S COLLEGE LONDON, priority 2017, dated 2023)
≈ marks a conversion by molar mass, not a printed value. Where a name gives a salt, the structure may show the parent alone. Read-outs that look alike come from different tables or passages of the source.

Assays:
Assay in all cases: MIC, microdilution broth method
VRE12201 = assay type: cell-based, Enterococcus faecalis
VRE12204 = assay type: cell-based, Enterococcus faecium; settings: in µg/mL; for MIC: VRE12204
EC12923 = assay type: cell-based; settings: for MIC, EC12923: ESKAPE panel, Gram-negative
KP13368 = assay type: cell-based
M6 = assay type: cell-based; settings: for MIC, M6: ESKAPE panel, Gram-negative
VSE775 = assay type: cell-based, Enterococcus faecalis; set-up: MIC, VSE775: unit not given beside the values
MSSA9144 = assay type: cell-based, Staphylococcus aureus
EMRSA16 = assay type: cell-based, Staphylococcus aureus
PA01 = assay type: cell-based, Pseudomonas aeruginosa; settings: in µg/mL; for MIC: PA01, Normal (no PMBN)
EMRSA15 = assay type: cell-based, Staphylococcus aureus
Ab17978 = assay type: cell-based; settings: for MIC, Ab17978: ESKAPE panel, Gram-negative
[1] = KP13368, Normal (no PMBN), in µg/mL
[2] = Ab17978, Normal (no PMBN), in µg/mL
[3] = ESKAPE panel, Gram-positive, in µg/mL

Row | Compound | MIC (VRE12201; VRE12201, in µg/mL) | MIC (VRE12204) | MIC (VSE775; VSE775, in µg/mL) | MIC (MSSA9144; MSSA9144, in µg/mL) | MIC (EMRSA16; EMRSA16, in µg/mL) | MIC (EMRSA15; EMRSA15, in µg/mL) | MIC (EC12923; EC12923, in µg/mL) | MIC (KP13368; [1]) | MIC (M6; M6, Normal (no PMBN), in µg/mL) | MIC (PA01) | MIC (Ab17978; [2]) | other results
1 | COC(=O)c1cnc(N2CCN(c3c(F)cc4c(=O)c(C(=O)O)cn5c4c3OC[C@@H]5C)CC2)nc1 [Compound 82-KSN-L8] | 2 | 4 | 4 | ≤0.12 | 16 | 8 | 4 | 32 | 4 | 32 | 2 | –
2 | CCn1cc(C(=O)O)c(=O)c2cc(F)c(N3CCN(Cc4cccc5c4OCO5)CC3)cc21 [ML-77-035] | 4 | 8 | 8 | 0.5 | >32 | >32 | – | – | 8-16 | 64-128 | 2-4 | –
3 | CCn1cc(C(=O)O)c(=O)c2cc(F)c(N3CCN(Cc4ccccc4)CC3)cc21 [ML-77-047] | 2 | 4 | 4 | 0.25 | 16-32 | 16 | – | 32 | 4 | 32 | 1-16 | –
4 | CCn1cc(C(=O)O)c(=O)c2cc(F)c(N3CCN(Cc4cccc5cccnc45)CC3)cc21 [ML-77-053] | 8 | – | 16 | 1 | – | – | – | 64 | 8 | 64 | 4 | –
5 | CCn1cc(C(=O)O)c(=O)c2cc(F)c(N3CCN(Cc4ccc(-n5cccc5)cc4)CC3)cc21 [ML-77-136, 7-(4-(4-(1H-pyrrol-1-yl)benzyl)piperazin-1-yl)-1-ethyl-6-fluoro oxo-1-4-dihydroquinoline-3-carboxylic acid] | 4-8 | 4-8 | 4-8 | 0.25-0.5 | 8-16 | 8 | – | 64-128 | 8-32 | 64-128 | 16-32 | –
6 | Cc1cc(N2CCN(c3c(F)cc4c(=O)c(C(=O)O)cn5c4c3OC[C@@H]5C)CC2)nc(C(C)C)n1 [ML-83-011, (S)-9-fluoro-10-(4-(2-isopropyl-6-methylpyrimidin-4-yl)piperazin-1-yl)-3-methyl-7-oxo-2,3-dihydro-7H-[1,4]oxazino[2,3,4-ij]quinoline-6-carboxylic acid] | – | 8 | 1 | 0.25 | 16 | 16 | 1-8 | 64 | 16-64 | – | 16 | MIC, VRE12201 (VRE12201; [3]): 0.5-1; MIC (VRE12201; Enterococcus faecalis, Enterococcus (VRE12201), Gram-Positive, read-out: MIC): 0.5 to 1 µg/mL (≈ 1.04 to 2.08 µM); MIC, VRE12204 (VRE12204; ESKAPE panel, Gram-positive): 8; MIC, EC12923 (EC12923; in µg/mL): 1-8; MIC (EC12923; Escherichia coli (EC12923), Gram-Negative, read-out: MIC): 1 to 8 µg/mL (≈ 2.08 to 16.6 µM); MIC, KP13368 (KP13368; ESKAPE panel, Gram-negative): 64 µg/mL (≈ 133 µM); MIC (KP13368; Klebsiella pneumoniae (KP13368), Gram-Negative, read-out: MIC): 64 µg/mL (≈ 133 µM); MIC, M6 (M6; in µg/mL): 16-64; MIC (M6; Klebsiella pneumoniae (M6), Gram-Negative, read-out: MIC): 16 to 64 µg/mL (≈ 33.2 to 133 µM); MIC, VSE775 (VSE775; ESKAPE panel, Gram-positive): 1; MIC (VSE775; Enterococcus faecalis, Enterococcus (VRE775), Gram-Positive, read-out: MIC): 1 µg/mL (≈ 2.08 µM); MIC (MSSA9144; Staphylococcus aureus (MSSA9144), Gram-Positive, read-out: MIC): 0.25 µg/mL (≈ 0.519 µM); MIC, EMRSA16 (EMRSA16; [3]): 16; MIC (EMRSA16; Staphylococcus aureus (EMRSA16), Gram-Positive (Table 14), read-out: MIC): 16 µg/mL (≈ 33.2 µM); MIC, EMRSA15 (EMRSA15; [3]): 16; MIC (EMRSA15; Staphylococcus aureus, Staphylococcus aureus (EMRSA15), Gram-Positive (Table 14), read-out: MIC): 16 µg/mL (≈ 33.2 µM); MIC (Ab17978; Acinetobacter baumannii (AB17978), Gram-Negative, read-out: MIC): 16 µg/mL (≈ 33.2 µM); MIC, Ab17978 (Ab17978; in µg/mL): 16
7 | Cc1cc(N2CCN(c3c(F)cc4c(=O)c(C(=O)O)cn5c4c3OC[C@@H]5C)CC2)nc(C(C)C)n1 [ML-83-012, hydrochloride] | – | – | – | – | – | – | – | – | – | – | – | MIC, EC12923 (EC12923; hydrochloride, in µg/mL): 4; MIC (KP13368; Klebsiella pneumoniae (KP13368), Gram-Negative): 64 µg/mL; MIC, M6 (M6; hydrochloride, in µg/mL): 16; MIC (VSE775; Enterococcus (VRE775), Gram-Positive): 0 to 5 µg/mL; MIC, MSSA9144 (MSSA9144; [3]): 0.25; MIC (MSSA9144; Staphylococcus aureus (MSSA9144), Gram-Positive): 0.25 µg/mL; MIC (EMRSA16; Staphylococcus aureus (EMRSA16), Gram-Positive (Table 14), hydrochloride): 2 µg/mL; MIC, PA01 (PA01; ESKAPE panel, Gram-negative, hydrochloride): 32; MIC, Ab17978 (Ab17978; hydrochloride, in µg/mL): 8
8 | C[C@H]1COc2c(N3CCN(c4ccncc4)CC3)c(F)cc3c(=O)c(C(=O)O)cn1c23 [ML-83-019] | – | – | – | 64 | – | – | 32 | – | 64 | – | 64 | –
9 | CCn1cc(C(=O)O)c(=O)c2cc(F)c(N3CCN(Cc4cccc(COC)c4)CC3)cc21 [ML-83-037, 1-ethyl-6-fluoro-7-(4-(3-(methoxymethyl)benzyl)piperazin-1-yl)-4-oxo-1,4-dihydroquinoline-3-carboxylic acid] | 8 | 16 | 16 | 1 | 64 | 64-128 | 16 | 64-128 | 32 | – | 8 | –
10 | CCn1cc(C(=O)O)c(=O)c2cc(F)c(N3CCN(Cc4ccc(COC)cc4)CC3)cc21 [ML-83-052, 1-ethyl-6-fluoro-7-(4-(4-(methoxymethyl)benzyl)piperazin-1-yl)-4-oxo-1,4-dihydroquinoline-3-carboxylic acid] | 8 | 16 | 8-16 | 0.5-1 | 64 | 64-128 | 4 | 64 | 8-16 | – | 4 | –

More lines, main results first:

Row | MIC (VRE12201; VRE12201, in µg/mL) | MIC (VRE12204) | MIC (VSE775; VSE775, in µg/mL) | MIC (MSSA9144; MSSA9144, in µg/mL) | MIC (EMRSA16; EMRSA16, in µg/mL) | MIC (EMRSA15; EMRSA15, in µg/mL) | Compound | MIC (EC12923; EC12923, in µg/mL) | MIC (KP13368; [1]) | MIC (M6; M6, Normal (no PMBN), in µg/mL) | MIC (PA01) | MIC (Ab17978; [2]) | other results
11 | 0.125-0.5 | 1 | 0.25-1 | 0.0625-0.125 | – | 8-16 | CN(C)c1ccc(CN2CCN(c3cc4c(cc3F)c(=O)c(C(=O)O)cn4C3CC3)CC2)cc1 [ML-77-112] | – | – | 1-2 | 8 | 0.5-1 | –
12 | 2 | 0.25 | 4-8 | 0.125-0.25 | >32 | 16-32 | CCn1cc(C(=O)O)c(=O)c2cc(F)c(N3CCN(Cc4ccc(N(C)C)cc4)CC3)cc21 [ML-77-113] | – | 32 | 4-16 | 16-32 | 2 | –
13 | 4 | 2 | 2 | 1 | 2 | 2 | O=C(O)c1cn(C2CC2)c2cc(N3CCN(Cc4ccc(-c5ccccc5)cc4)CC3)c(F)cc2c1=O [ML-77-133] | – | – | 1 | 4 | 2 | –
14 | 4 | 8 | 4-8 | 0.5 | 32 | 32 | CCn1cc(C(=O)O)c(=O)c2cc(F)c(N3CCN(Cc4ccc(CO)cc4)CC3)cc21 [ML-77-148, 1-ethyl-6-fluoro-7-(4-(4-(hydroxymethyl)benzyl)piperazin-1-yl)-4-oxo-1,4-dihydroquinoline-3-carboxylic acid] | – | 32 | 4 | 32 | 2 | –
15 | 1 | 8 | 2-4 | 0.25 | 8 | 4-8 | Cc1cc(C)cc(CN2CCN(c3cc4c(cc3F)c(=O)c(C(=O)O)cn4C3CC3)CC2)c1 [ML-77-149] | – | – | 4-8 | 32 | 4 | –
16 | 4 | 16 | 8 | <0.12 | 16 | 8 | CCn1cc(C(=O)O)c(=O)c2cc(F)c(N3CCN(Cc4ccc(-c5csnn5)cc4)CC3)cc21 [ML-77-161, 7-(4-(4-(1,2,3-thiadiazol-4-yl)benzyl)piperazin-1-yl)-1-ethyl-6-fluoro-4-oxo-1,4-dihydroquinoline-3-carboxylic acid] | – | 64 | 4-8 | 64 | 2 | –
17 | 2-4 | 16 | 2-4 | 0.5 | – | – | COCc1cccc(CN2CCN(c3cc4c(cc3F)c(=O)c(C(=O)O)cn4C3CC3)CC2)c1 [ML-83-036] | 4 | – | 8 | – | 2 | –
18 | 8 | 16 | 8 | 2 | – | – | C[C@H]1COc2c(N3CCC(n4cccn4)CC3)c(F)cc3c(=O)c(C(=O)O)cn1c23 [ML-83-041, (S)-10-(4-(1H-pyrazol-1-yl)piperidin-1-yl)-9-fluoro-3-methyl-7-oxo-2,3-dihydro-7H-[1,4]oxazino[2,3,4-ij]quinoline-6-carboxylic acid] | 2 | 32 | 4 | 64 | 4-8 | –
19 | 1 | 16 | 1-2 | 0.25 | – | 16-32 | COCc1ccc(CN2CCN(c3cc4c(cc3F)c(=O)c(C(=O)O)cn4C3CC3)CC2)cc1 [ML-83-050] | 1 | – | 2 | – | 1 | –
